# Reference: ChEMBL document CHEMBL1154521, “2,3-Dihydrowithaferin A-3beta-O-sulfate, a new potential prodrug of withaferin A from aeroponically grown Withania somnifera” (2009)
# The source made the active and inactive calls. The rule behind the calls is not given here.
# How the values were obtained:
# WI-38 [1] = test: Induction of F-actin aggregation in human WI38 cells after 24 hrs; format: functional, cell-based
# MCF7 [2] = test: Cytotoxicity against human MCF7 cells after 72 hrs by MTT assay; format: functional, cell-based
# MCF7 [3] = test: Cytotoxicity against human MCF7 cells by MTT assay; format: functional
# [4] = target: T1, Heat shock factor protein 1 (Mus musculus) (UniProt P38532); test: Induction of HSF1-mediated heat-shock protein 72 expression in mouse fibroblast with plasmid EGFP at 2 uM after overnight incubation by micro plate fluorometer
# T1 sequence (whole entry): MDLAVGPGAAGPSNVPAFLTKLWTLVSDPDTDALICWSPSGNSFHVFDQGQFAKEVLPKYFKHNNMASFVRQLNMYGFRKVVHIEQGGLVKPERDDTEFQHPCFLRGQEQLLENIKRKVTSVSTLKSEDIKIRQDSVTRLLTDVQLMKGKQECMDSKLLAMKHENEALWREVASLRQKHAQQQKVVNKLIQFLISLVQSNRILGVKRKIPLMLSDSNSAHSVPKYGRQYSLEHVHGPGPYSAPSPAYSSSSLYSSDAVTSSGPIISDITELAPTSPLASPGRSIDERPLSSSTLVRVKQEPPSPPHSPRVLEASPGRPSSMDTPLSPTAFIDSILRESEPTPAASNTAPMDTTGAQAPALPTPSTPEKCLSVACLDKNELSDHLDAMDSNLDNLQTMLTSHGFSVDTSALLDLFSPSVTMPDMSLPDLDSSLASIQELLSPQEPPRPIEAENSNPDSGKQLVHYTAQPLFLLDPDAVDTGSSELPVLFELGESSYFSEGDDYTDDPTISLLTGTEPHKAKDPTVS
# WI-38 [5] = test: Induction of F-actin aggregation in human WI38 cells after 4 hrs; format: functional, cell-based
# [6] = Growth inhibition of human NCI60 cells; format: functional
Compound,Activity (WI-38 [1]),Activity (MCF7 [2]),inhibition (INH) (MCF7 [3]) [%],Activity [4],Activity (WI-38 [5]),GI50 [6] [µM]
CC1=C(CO)C(=O)O[C@@H]([C@@H](C)[C@H]2CC[C@H]3[C@@H]4C[C@H]5O[C@]56[C@@H](O)[C@@H](OS(=O)(=O)O)CC(=O)[C@]6(C)[C@H]4CC[C@]23C)C1,inactive,–,–,–,–,–
CC1=C(CO)C(=O)O[C@@H]([C@@H](C)[C@H]2CC[C@H]3[C@@H]4C[C@H]5O[C@]56[C@@H](O)C=CC(=O)[C@]6(C)[C@H]4CC[C@]23C)C1 [WITHAFERIN A],–,Active,50,Active,Active,0.62
